From US20060247320A1, “Compounds for inhibiting KSP kinesin activity” (priority 2005, published 2006) come the findings set out here.

Read-outs that look alike come from different tables or passages of the source. Some results are limits rather than exact numbers.

The term IC50 denotes the concentration that gives 50% inhibition.

The target in this test is T1, KSP motor domain (Homo sapiens, UniProt P52732).
T1 sequence (P52732 18-359 limits assumed): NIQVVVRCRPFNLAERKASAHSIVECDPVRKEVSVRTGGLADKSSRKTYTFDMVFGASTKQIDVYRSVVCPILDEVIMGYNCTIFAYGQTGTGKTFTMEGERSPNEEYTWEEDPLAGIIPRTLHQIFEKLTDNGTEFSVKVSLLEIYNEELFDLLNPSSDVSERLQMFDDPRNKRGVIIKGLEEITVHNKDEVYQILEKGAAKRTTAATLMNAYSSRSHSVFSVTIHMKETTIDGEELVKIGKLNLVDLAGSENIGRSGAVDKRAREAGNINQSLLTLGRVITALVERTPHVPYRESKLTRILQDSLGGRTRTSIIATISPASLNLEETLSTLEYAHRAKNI
The test can be described thus: biochemical.

[1] abbreviates: KSP inhibitory activity, end-point assay, class symbols (Table 1), read-out: IC50.
Setting [2] is: exact IC50 values, end-point assay (Table 2), read-out: IC50.

`CC(C)(C)C1CCc2nc3sc(C#N)cc3cc2C1` (racemic) [Example 58, 6-tert-butyl-5,6,7,8-tetrahydrothieno[2,3-b]quinoline-2-carbonitrile]: the IC50 under setting [1] fell in the range of 100 to 1000 nM.
On the same count and under the same terms, the figure for `CC(C)(C)C1CCc2nc3sc(C#N)cc3cc2C1` (single isomer, unassigned) [Example 62] is 100 to 1000 nM.
With `CC(C)(C)C1CCc2nc3sc(C#N)cc3cc2C1` (single isomer, unassigned) [Example 63], the IC50 reads like this: under setting [1], under 100 nM; under setting [2], 40 nM.
On to `C[Si](C)(C)C1CCc2nc3sc(C(N)=O)cc3cc2C1` (single isomer, unassigned) [Example 189, 5,6,8-Tetrahydro-6-(Trimethylsilyl)thieno[2,3-b]quinoline-2-Carboxamide], for which the IC50 is under 100 nM (IC50 (nM), KSP inhibitory activity, end-point assay, class symbols (Table 1)) and 50 nM (IC50 (nM), exact IC50 values, end-point assay (Table 2)).
On to `CC(C)(C)C1CCc2nc3sc(C(N)=O)cc3cc2C1` (single isomer, unassigned; (+)) [Example 68, (+)-6-(1,1-dimethylethyl)-5,6,7,8-tetrahydrothieno[2,3-b]quinoline-2-carboxamide], for which the IC50 is under 100 nM under setting [1] and 20 nM under setting [2].
Take `CC(C)(C)C1CCc2nc3sc(C(N)=O)cc3cc2C1` (single isomer, unassigned; (-)) [Example 67, (−)-6-(1,1-dimethylethyl)-5,6,7,8-tetrahydrothieno[2,3-b]quinoline-2-carboxamide]: the IC50 under setting [1] lay within 100 to 1000 nM.
On the same count and under the same terms, to `CC(CO)NC(=O)c1sc2nc3c(cc2c1N)CC(C(C)(C)C)CC3` (stereo in doubt) [Example 192, 3-Amino-6-(1,1-Dimethylethyl)-5,6,7,8-Tetrahydro-N-(2-Hydroxy-1(S)-Methylethyl)thieno[2,3-b]quinoline-2-Carboxamide] belongs 1000 to 10000 nM.
In the case of `CC(C)C1CCc2nc3sc(C#N)c(N)c3cc2C1` (centres unmarked) [Example 1, 3-amino-6-isopropyl-5,6,7,8-tetrahydrothieno[2,3-b]quinoline-2-carbonitrile], the IC50 under setting [1] lay in the range of 1000 to 10000 nM.
On to `N#Cc1sc2nc3c(cc2c1N)CC(c1ccccc1)CC3` (centres unmarked) [Example 3], for which, under setting [1], the IC50 is over 10000 nM.
On the same count and under the same terms, the figure for `N#Cc1sc2nc3c(cc2c1N)CC(C12CC4CC(CC(C4)C1)C2)CC3` (centres unmarked) [Example 4] is over 10000 nM; for `CCC(CC)(CC)C1CCc2nc3sc(C#N)c(N)c3cc2C1` (centres unmarked) [Example 5] it is 1000 to 10000 nM.
As to `CC1(C2CCc3nc4sc(C#N)c(N)c4cc3C2)CCCC1` (centres unmarked) [Example 6], the IC50 under setting [1] is 100 to 1000 nM.
`CC(C)C(C)(C)C1CCc2nc3sc(C#N)c(N)c3cc2C1` (centres unmarked) [Example 7]: under setting [1], the IC50 is over 10000 nM.
On the same count and under the same terms, to `CC(C)CC(C)(C)C1CCc2nc3sc(C#N)c(N)c3cc2C1` (centres unmarked) [Example 8] belongs over 10000 nM; to `CC(C)(C)C(C)(C)C1CCc2nc3sc(C#N)c(N)c3cc2C1` (centres unmarked) [Example 9], 1000 to 10000 nM; to `CCCC(C)(C)C1CCc2nc3sc(C#N)c(N)c3cc2C1` (centres unmarked) [Example 10], 100 to 1000 nM.
On the same count and under the same terms, the figure for `CC(C)(C)CC(C)(C)C1CCc2nc3sc(C#N)c(N)c3cc2C1` (centres unmarked) [Example 11] is over 10000 nM.
Still for that read-out and setting: the figure for `CCC(C)(C)C1CCc2nc3sc(C#N)c(N)c3cc2C1` (centres unmarked) [Example 12] is under 100 nM; for `CC1CCc2nc3sc(C#N)c(N)c3cc2C1` (centres unmarked) [Example 13] it is over 10000 nM.
For `N#Cc1sc2nc3c(cc2c1N)CC(C(F)(F)F)CC3` (centres unmarked) [Example 14], the IC50 under setting [1] lay in the range of 1000 to 10000 nM.
Regarding `CCCC1CCc2nc3sc(C#N)c(N)c3cc2C1` (centres unmarked) [Example 15], the IC50 under setting [1] is 1000 to 10000 nM.
Still for that read-out and setting: the figure for `CCCC1(CCC)CCc2nc3sc(C#N)c(N)c3cc2C1` [Example 16] is over 10000 nM; for `CCC1CCc2nc3sc(C#N)c(N)c3cc2C1` (centres unmarked) [Example 17] it is 1000 to 10000 nM; for `N#Cc1sc2nc3c(cc2c1N)CC(C1CCCCC1)CC3` (centres unmarked) [Example 18] it is over 10000 nM.
On to `CCCCCC1CCc2nc3sc(C#N)c(N)c3cc2C1` (centres unmarked) [Example 19], for which the IC50 under setting [1] was over 10000 nM.
As for `CC(C)CCC1CCc2nc3sc(C#N)c(N)c3cc2C1` (centres unmarked) [Example 20], the IC50 under setting [1] was over 10000 nM.
Still for that read-out and setting: to `CCC(C)C1CCc2nc3sc(C#N)c(N)c3cc2C1` (centres unmarked) [Example 21] belongs 1000 to 10000 nM; to `N#Cc1sc2nc3c(cc2c1N)CC(C1CCCC1)CC3` (centres unmarked) [Example 22], over 10000 nM.
Still for that read-out and setting: the figure for `CC(C1CCc2nc3sc(C#N)c(N)c3cc2C1)C(C)(C)C` (centres unmarked) [Example 23] is over 10000 nM; for `CC(C)C(C(C)C)C1CCc2nc3sc(C#N)c(N)c3cc2C1` (centres unmarked) [Example 24] it is 1000 to 10000 nM; for `CC(C)(C)CC1CCc2nc3sc(C#N)c(N)c3cc2C1` (centres unmarked) [Example 25] it is 100 to 1000 nM.
Still for that read-out and setting: to `CCC(CC)C1CCc2nc3sc(C#N)c(N)c3cc2C1` (centres unmarked) [Example 26] belongs 100 to 1000 nM; to `CC(C)CC1CCc2nc3sc(C#N)c(N)c3cc2C1` (centres unmarked) [Example 27], 1000 to 10000 nM.
For `CCC(C(C)C)C1CCc2nc3sc(C#N)c(N)c3cc2C1` (centres unmarked) [Example 28], under setting [1], the IC50 lay in the range of 100 to 1000 nM.
Turning to `CCC(C1CCc2nc3sc(C#N)c(N)c3cc2C1)C(C)(C)C` (centres unmarked) [Example 29], under setting [1], the IC50 is over 10000 nM.
Same read-out and setting: the figure for `CC(C)C(C)C1CCc2nc3sc(C#N)c(N)c3cc2C1` (centres unmarked) [Example 30] is 100 to 1000 nM; for `N#Cc1sc2nc3c(cc2c1N)CC(Cc1ccccc1)CC3` (centres unmarked) [Example 31] it is over 10000 nM.
For `CCCCC1CCc2nc3sc(C#N)c(N)c3cc2C1` (centres unmarked) [Example 32], under setting [1], the IC50 was over 10000 nM.
Still for that read-out and setting: to `C/C=C/C=C1\CCc2nc3sc(C#N)c(N)c3cc2C1` [Example 35] belongs over 10000 nM; to `CC(C)=C/C=C1\CCc2nc3sc(C#N)c(N)c3cc2C1` [Example 36], over 10000 nM; to `N#Cc1sc2nc3c(cc2c1N)C/C(=C/C1CC1)CC3` [Example 37], over 10000 nM.
Same read-out and setting: the figure for `CCC(C)(C)C1Cc2cc3c(N)c(C#N)sc3nc2C1` (centres unmarked) [Example 38] is 1000 to 10000 nM.
For `CC(C)(C)C1CCCc2nc3sc(C#N)c(N)c3cc2C1` (centres unmarked) [Example 40], the IC50 was under 100 nM under setting [1] and 60 nM under setting [2].
Turning to `CC(C)(C)C1CCc2cc3c(N)c(C#N)sc3nc2CC1` (centres unmarked) [Example 41], the IC50 under setting [1] lay within 1000 to 10000 nM.
The same measure, in the same setting: the figure for `CC(C)(C)OC(=O)N1CCc2nc3sc(C#N)c(N)c3cc2C1` [Example 42] is over 10000 nM; for `CC1(C2CCc3nc4sc(C#N)c(N)c4cc3C2)CC1` (centres unmarked) [Example 43] it is 100 to 1000 nM; for `N#Cc1sc2nc3c(cc2c1N)CC1(CC3)OCCO1` [Example 44] it is over 10000 nM.
Take `N#Cc1sc2nc3c(cc2c1N)CCCC3` [Example 45]: under setting [1], the IC50 is over 10000 nM.
On the same count and under the same terms, the figure for `CC1Cc2nc3sc(C#N)c(N)c3cc2C(C)C1` (centres unmarked) [Example 46] is over 10000 nM; for `CC1(C)CCc2nc3sc(C#N)c(N)c3cc2C1` [Example 47] it is over 10000 nM.
Same read-out and setting: to `CC1(C)Cc2nc3sc(C#N)c(N)c3cc2C(C)(C)C1` [Example 48] belongs over 10000 nM; to `CCCC1CCc2cc3c(N)c(C#N)sc3nc2C1` (centres unmarked) [Example 49], over 10000 nM; to `N#Cc1sc2nc3c(cc2c1N)CCC(C(F)(F)F)C3` (centres unmarked) [Example 50], over 10000 nM.
The same measure, in the same setting: the figure for `CC(C)C1CCc2cc3c(N)c(C#N)sc3nc2C1` (centres unmarked) [Example 51] is over 10000 nM; for `CCCC1CCCc2cc3c(N)c(C#N)sc3nc21` (centres unmarked) [Example 52] it is over 10000 nM.
For `N#Cc1sc2nc3c(cc2c1N)CC(=O)CC3` [Example 53], the IC50 under setting [1] is over 10000 nM.
Turning to `CCC(C)(C)C1CCc2nc3sc(C#N)c(N)c3c(SC)c2C1` (centres unmarked) [Example 54], the IC50 under setting [1] was over 10000 nM.
For the molecule `N#Cc1sc2nc3c(cc2c1N)CN(CC1CC1)CC3` [Example 55], the IC50 under setting [1] was over 10000 nM.
`N#Cc1sc2nc3c(cc2c1N)CN(Cc1ccccc1)CC3` [Example 56]: under setting [1], the IC50 is over 10000 nM.
Consider `N#Cc1sc2nc3c(cc2c1N)CN(CCC(F)(F)F)CC3` [Example 57], for which the IC50 under setting [1] was over 10000 nM.
For the molecule `CCC(C)(C)C1CCc2nc3sc(C#N)cc3cc2C1` (centres unmarked) [Example 59], the IC50 under setting [1] is under 100 nM and the IC50 under setting [2] is 55 nM.
Turning to `CC(C)(C)C1CCCc2nc3sc(C#N)cc3cc2C1` (centres unmarked) [Example 60], the IC50 under setting [1] was under 100 nM.
On to `CC(C)(C)C1CCc2cc3cc(C#N)sc3nc2CC1` (centres unmarked) [Example 61], for which the IC50 under setting [1] is 1000 to 10000 nM.
Turning to `CC(C)(C)C1CCc2nc3sc(C(N)=O)cc3cc2C1` (centres unmarked) [Example 64, 6-tert-butyl-5,6,7,8-tetrahydrothieno[2,3-b]quinoline-2-carboxylic acid amide], the IC50 under setting [1] is under 100 nM.
As for `CC(C)(C)C1CCCc2nc3sc(C(N)=O)cc3cc2C1` (centres unmarked) [Example 65], the IC50 reads like this: under setting [1], under 100 nM; under setting [2], 62 nM.
In the case of `CC(C)(C)C1CCc2cc3cc(C(N)=O)sc3nc2CC1` (centres unmarked) [Example 66], the IC50 under setting [1] is 1000 to 10000 nM.
With `CC(C)(C)C1CCc2nc3sc(C(=N)N)cc3cc2C1` (centres unmarked) [Example 69, 6-tert-butyl-5,6,7,8-tetrahydrothieno[2,3-b]quinoline-2-carboxamidine], the “IC50 (nM)” value (KSP inhibitory activity, end-point assay, class symbols (Table 1)) is recorded as “B/C”.
For the molecule `CC(C)(C)C1CCc2nc3sc(C(N)=S)cc3cc2C1` (centres unmarked) [Example 70, 6-tert-butyl-5,6,7,8-tetrahydrothieno[2,3-b]quinoline-2-carbothioic acid amide], the IC50 under setting [1] was in the range of 100 to 1000 nM.
The same measure, in the same setting: to `CCC(C)(C)C1CCc2c(cc3cc(C#N)sc3[n+]2[O-])C1` (centres unmarked) [Example 71] belongs 1000 to 10000 nM; to `CCC(C)(C)C1CCc2nc3sc(-c4nn[nH]n4)cc3cc2C1` (centres unmarked) [Example 72], 1000 to 10000 nM.
Same read-out and setting: the figure for `CC(C)(C)C1CCc2nc3sc(C(=O)O)cc3cc2C1` (centres unmarked) [Example 73, 6-tert-Butyl-5,6,7,8-tetrahydrothieno[2,3-b]quinoline-2-carboxylic acid] is over 10000 nM.
